pIC50: −log10 of the molar value. ≈ marks a conversion by molar mass, not a printed value.

Assay [1] concerns the target T1, Epidermal growth factor receptor (Homo sapiens, UniProt P00533). The assay can be described thus: Inhibition of epidermal growth factor receptor kinase autophosphorylation.
For assay [2], the target named is T1, Epidermal growth factor receptor. The assay is described as follows: Inhibition of peptide substrate phosphorylation by epidermal growth factor receptor.
The subject of another assay is SW-620. The assay is described as follows: Inhibition of SW620 human carcinoma cell proliferation. In kind it is functional, cell-based.
The subject of another assay is A-431. The assay can be described thus: Inhibition of A431 human carcinoma cell proliferation. In kind it is functional, cell-based.
For the next assay, the system named is SK-BR-3. The assay can be described thus: Inhibition of SKBr3 human carcinoma cell proliferation. Format: functional, cell-based.

T1 sequence (P00533 whole entry): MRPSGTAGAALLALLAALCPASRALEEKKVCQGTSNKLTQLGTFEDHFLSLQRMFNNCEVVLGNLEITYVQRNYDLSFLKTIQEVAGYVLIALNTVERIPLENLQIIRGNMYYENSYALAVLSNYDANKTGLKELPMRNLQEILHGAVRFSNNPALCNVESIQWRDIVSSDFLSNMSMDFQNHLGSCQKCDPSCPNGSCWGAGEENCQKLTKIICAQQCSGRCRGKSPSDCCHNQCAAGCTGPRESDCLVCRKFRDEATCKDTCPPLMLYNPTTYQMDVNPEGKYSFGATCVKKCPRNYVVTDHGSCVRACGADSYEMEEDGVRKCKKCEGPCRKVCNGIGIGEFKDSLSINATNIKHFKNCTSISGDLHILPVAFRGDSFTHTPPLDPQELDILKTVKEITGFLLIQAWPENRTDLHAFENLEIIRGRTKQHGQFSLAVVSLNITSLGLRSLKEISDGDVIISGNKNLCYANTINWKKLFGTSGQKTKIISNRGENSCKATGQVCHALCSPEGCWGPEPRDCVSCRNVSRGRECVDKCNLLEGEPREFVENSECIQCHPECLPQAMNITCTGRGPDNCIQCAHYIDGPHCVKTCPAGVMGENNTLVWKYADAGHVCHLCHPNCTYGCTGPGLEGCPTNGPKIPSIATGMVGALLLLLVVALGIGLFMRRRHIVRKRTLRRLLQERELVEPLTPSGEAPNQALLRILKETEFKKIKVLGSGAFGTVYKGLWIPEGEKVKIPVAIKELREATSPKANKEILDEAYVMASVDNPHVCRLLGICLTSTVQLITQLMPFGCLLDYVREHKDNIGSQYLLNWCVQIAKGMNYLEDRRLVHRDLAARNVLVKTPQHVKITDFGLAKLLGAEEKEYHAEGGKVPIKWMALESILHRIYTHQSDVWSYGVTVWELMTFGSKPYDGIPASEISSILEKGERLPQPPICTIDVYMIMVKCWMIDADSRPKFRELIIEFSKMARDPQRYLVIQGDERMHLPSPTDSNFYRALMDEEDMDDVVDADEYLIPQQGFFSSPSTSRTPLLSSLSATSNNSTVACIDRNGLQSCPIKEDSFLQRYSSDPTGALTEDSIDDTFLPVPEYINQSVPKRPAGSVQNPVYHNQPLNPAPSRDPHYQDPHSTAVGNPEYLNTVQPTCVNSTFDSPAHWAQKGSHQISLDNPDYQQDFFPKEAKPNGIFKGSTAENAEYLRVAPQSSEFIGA

As a reminder, the pIC50 is the negative decadic logarithm of the IC50, by convention in mol/L. Consider `CC#CC(=O)Nc1ccc2ncc(C#N)c(Nc3ccc(F)c(Cl)c3)c2c1`, for which the negative logarithm of the IC50 (pIC50) was 5.99 in assay [1] and 6.48 in assay [2].

Take `CC#CC(=O)Nc1cnc2ncc(C#N)c(Nc3cccc(Br)c3)c2c1`: the pIC50 is under 5.00 in assay [1] and 5.20 in assay [2].

For orientation: IC50 means the concentration that inhibits the measured activity by half. Higher therefore signals lower potency. Consider `CN(C)C/C=C/C(=O)Nc1cnc2ncc(C#N)c(Nc3cccc(Br)c3)c2c1`, for which the values for the pIC50 in assay [1] and in assay [2] were 5.38 and 5.69, respectively. In addition, the results for the IC50 in the assay with SW-620, in the assay with A-431 and with SK-BR-3 were over 5 µg/mL, 2.76 µg/mL (≈ 6.12 µM) and 4.83 µg/mL (≈ 10.7 µM), respectively.

As for `CN(C)CCOc1cc2c(Nc3cccc(Br)c3)c(C#N)cnc2cn1`, the pIC50 in assay [1] and in assay [2] was under 5.00 throughout.

For `C=CC(=O)Nc1ccc2ncc(C#N)c(Nc3cccc(Br)c3)c2c1`, the pIC50 in assay [1] was 7.06; in assay [2], 8.01.

As for `CN(C)CCOc1cc2c(Nc3ccc(F)c(Cl)c3)c(C#N)cnc2cn1`, the pIC50 in assay [1] and in assay [2] was under 5.00 throughout.

Turning to `C=CC(=O)Nc1cnc2ncc(C#N)c(Nc3cccc(Br)c3)c2c1`, the pIC50 in assay [1] was 6.01; in assay [2], 6.43.

Regarding `CC#CC(=O)Nc1cnc2ncc(C#N)c(Nc3ccc(F)c(Cl)c3)c2c1`, the pIC50 in assay [1] was 5.17; in assay [2] it was 5.42.

For the molecule `CN(C)C/C=C/C(=O)Nc1ccc2ncc(C#N)c(Nc3cccc(Br)c3)c2c1`, the figures for the pIC50 in assay [1] and in assay [2] were 6.91 and 7.43, respectively. In addition, the 50% inhibitory concentration (IC50) with SW-620 is 2.8 µg/mL (≈ 6.22 µM); in the assay with A-431, 0.23 µg/mL (≈ 0.511 µM); in the assay with SK-BR-3 it was 0.089 µg/mL (≈ 0.198 µM).

Turning to `CN(C)C/C=C/C(=O)Nc1cc2c(Nc3cccc(Br)c3)c(C#N)cnc2cn1`, the pIC50 in assay [1] is 8.07; in assay [2] it was 8.72. The IC50 with SW-620 turned out to be 0.356 µg/mL (≈ 0.789 µM); with A-431 it was 0.088 µg/mL (≈ 0.195 µM); in the assay on SK-BR-3, 0.036 µg/mL (≈ 0.0798 µM).

With `CC#CC(=O)Nc1ccc2ncc(C#N)c(Nc3cccc(Br)c3)c2c1`, the pIC50 is under 6.00 in assay [1] and 6.59 in assay [2].

Source of the values: ChEMBL document CHEMBL1147619, “Syntheses and EGFR kinase inhibitory activity of 6-substituted-4-anilino [1,7] and [1,8] naphthyridine-3-carbonitriles” (Bioorg Med Chem Lett, 2004).
